What was measured:
Format in all cases: biochemical
[1] = target: T1, Arthromyces ramosus peroxidase (Arthromyces ramosus, UniProt P28313); experiment: Oxidation (bleaching) of Reactive Black 5 by peroxidase plus enhancer; conditions: for % bleaching / ΔAbs: 590 nm, 25° C., pH 9, 30 min
T1 construct: purchased Sigma P4794
T1 sequence (P28313 21-364): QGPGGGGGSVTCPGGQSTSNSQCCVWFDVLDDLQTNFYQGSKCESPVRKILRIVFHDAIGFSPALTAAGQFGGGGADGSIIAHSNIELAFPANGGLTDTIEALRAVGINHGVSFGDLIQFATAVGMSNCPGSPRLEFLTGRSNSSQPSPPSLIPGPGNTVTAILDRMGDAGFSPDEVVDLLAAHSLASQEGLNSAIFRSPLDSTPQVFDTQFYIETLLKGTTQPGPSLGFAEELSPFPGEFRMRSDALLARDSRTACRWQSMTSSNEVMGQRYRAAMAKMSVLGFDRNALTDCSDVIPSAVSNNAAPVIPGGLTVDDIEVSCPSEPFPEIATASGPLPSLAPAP
Description: The oxidation of Reactive Black 5 (RB5) is monitored at 590 nm in a spectrophotometer. […] The reaction was carried out for 30 minutes at room temperature. The difference in absorbance between t=0 and t=30 min (Δ Abs in Table) is a measure of the enhancing activity of the system tested.
ARP [6 u/ml], H2 O2 [250 μM], RB5 [60 μM], Enhancers [100 μM]
(§1) Examples 3-7 were repeated using 2-azaPTP, 4-azaPTP and PTP.

[2] = target: T1, Arthromyces ramosus peroxidase; experiment: Oxidation (bleaching) of Direct Green 26 by peroxidase plus enhancer; conditions: 25° C., pH 9, 30 min
Description: The oxidation of Direct Green 26 (DG26) is monitored at 610 nm in a spectrophotometer. […] The reaction was carried out for 30 minutes at room temperature. The difference in absorbance between t=0 and t=30 min (Δ Abs in Table) is a measure of the enhancing activity of the system tested.
as §1

[3] = target: T1, Arthromyces ramosus peroxidase; experiment: Oxidation (bleaching) of Direct Red 80 by peroxidase plus enhancer; conditions: pH 9, 30 min
Description: The reagents are added, using a pipette, in the following order, to a 1-cm cuvette: aqueous carbonate buffer pH 9 (20 mM), DR80 (60 μM), enhancer (various concentrations) and peroxidase enzyme (Arthromyces ramosus peroxidase from Sigma, P4794); 60 units/ml). The reaction was carried out for 30 minutes at room temperature. The difference in absorbance between t=0 and t=30 min (Δ Abs in Table) is a measure of the enhancing activity of the system tested.
as §1

[4] = target: T2, laccase (Polyporus pinsitus) (Trametes villosa, UniProt Q99044); experiment: Oxidation of Direct Green 26 by laccase plus enhancer; conditions: 25° C., laccase 30 u/ml, enhancer 67 μM
T2 sequence (Q99044 22-520): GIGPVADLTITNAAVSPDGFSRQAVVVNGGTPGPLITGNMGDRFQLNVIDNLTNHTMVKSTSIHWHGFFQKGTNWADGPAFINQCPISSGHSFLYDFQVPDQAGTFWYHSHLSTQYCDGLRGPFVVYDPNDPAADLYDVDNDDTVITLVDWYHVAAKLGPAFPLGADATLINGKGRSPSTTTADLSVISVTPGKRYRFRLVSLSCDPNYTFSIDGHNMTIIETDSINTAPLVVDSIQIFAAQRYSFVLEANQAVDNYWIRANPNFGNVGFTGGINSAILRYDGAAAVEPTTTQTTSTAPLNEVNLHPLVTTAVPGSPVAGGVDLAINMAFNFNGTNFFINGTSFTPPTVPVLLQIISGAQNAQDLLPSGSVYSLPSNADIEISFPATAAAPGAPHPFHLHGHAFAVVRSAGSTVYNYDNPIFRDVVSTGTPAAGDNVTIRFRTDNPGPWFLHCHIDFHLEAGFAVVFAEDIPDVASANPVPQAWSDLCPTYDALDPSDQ
Description: The oxidation of Direct Green 26 (DG26) is monitored at 605 nm in a spectrophotometer. The reagents are added, using a pipette, in the following order, to a 1-cm cuvette: aqueous tris buffer pH 9 (20 mM) or sodium phosphate buffer pH 6.0 (20 mM), DG26 (67 μM), enhancer (67 μM), and laccase (Polyporus pinsitus, 30 units/ml). The reaction was carried for 3 hours at room temperature. The difference in absorbance between […] and t=3 h is a measure of the enhancing activity of the system tested. DG26 [605 nm]: 25° C., pH 6.0 and 9.0, 3 h. Laccase [30 u/ml], DG26 [67 μM], Enhancers [67 μM]. The values listed are the decrease in absorbance at 605 nm after 3 h.

[5] = target: T2, laccase (Polyporus pinsitus); experiment: Oxidation of Reactive Black 5 by laccase plus enhancer; conditions: for decrease in absorbance after 3 h: 25 C, laccase 30 u/ml, enhancer 67 μM
Description: The laccase activity is measured on a spectrophotometer with 2 mM ABTS in 20 mM sodium phosphate buffer pH 6.0 at 25° C. The oxidation of Reactive Black 5 (RB5) is monitored at 575 nm. The reagents are added, using a pipette, in the following order, to a 1-cm cuvette: aqueous tris buffer pH 9 (20 mM) or sodium phosphate buffer pH 6.0 (20 mM), RB5 (67 μM), enhancer (67 μM), and laccase (Polyporus pinsitus, 30 units/ml). The reaction was carried for 3 hours at room temperature. The difference in absorbance between t=0 and t=3 hours is a measure of the enhancing activity of the system tested. RB5 [575 nm]: 25 C, pH 6.0 and 9.0, 3 h. Laccase [30 u/ml], RB5 [67 μM], Enhancers [67 μM]. The values listed are the decrease in absorbance at […] after 3 h.

[6] = Example 8: RB5 60 μM, ARP 10 u/ml, H2O2 100 μM, enhancer 200 μM
[7] = Example 8: DG26, 610 nm, ARP 10 u/ml, H2O2 100 μM, dye 60 μM, enhancer 200 μM
[8] = Example 8: DR80, 530 nm, 25° C., ARP 10 u/ml, H2O2 100 μM, dye 60 μM, enhancer 100 μM
[9] = Example 8: DR80, 530 nm, 25° C., ARP 10 u/ml, H2O2 100 μM, dye 60 μM, enhancer 200 μM
[10] = RB5 60 μM, ARP 6 u/ml, H2O2 250 μM, enhancer 100 μM
[11] = DG26 60 μM, 610 nm, ARP 60 u/ml, H2O2 250 μM, enhancer 100 μM
[12] = DR80 60 μM, 500 nm, 25C, ARP 60 u/ml, H2O2 250 μM, enhancer 100 μM
[13] = DR80 60 μM, 500 nm, 25° C., ARP 60 u/ml, H2O2 250 μM, enhancer 10 μM
[14] = DR80 60 μM, 500 nm, 25° C., ARP 60 u/ml, H2O2 250 μM, enhancer 25 μM
[15] = DR80 60 μM, 500 nm, 25° C., ARP 60 u/ml, H2O2 250 μM, enhancer 50 μM

| Compound | % bleaching [1, 6] | % bleaching [2, 7] | % bleaching [3, 8] | % bleaching [3, 9] | % bleaching [1, 10] | ΔAbs [1, 10] | decrease in absorbance at 605 nm after 3 h ([4]; pH 6.0, DG26 67 μM) | decrease in absorbance at 605 nm after 3 h ([4]; pH 9.0, DG26 67 μM) | decrease in absorbance after 3 h ([5]; pH 6.0, RB5 67 μM) | decrease in absorbance after 3 h ([5]; pH 9.0, RB5 67 μM) | % bleaching [2, 11] | ΔAbs [2, 11] | % bleaching [3, 12] | ΔAbs [3, 12] | % bleaching [3, 13] | ΔAbs [3, 13] | % bleaching [3, 14] | ΔAbs [3, 14] | % bleaching [3, 15] | ΔAbs [3, 15] | further results |
| --- | --- | --- | --- | --- | --- | --- | --- | --- | --- | --- | --- | --- | --- | --- | --- | --- | --- | --- | --- | --- | --- |
| O=C(O)CCN1c2ccccc2Sc2cnccc21 [Enhancer 2-aza-PTP, 10-(pyrido[3,4-b][1,4]benzothiazyl)propionic acid] | 63% | 31% | 12% | 20% | – | – | – | – | – | – | – | – | – | – | – | – | – | – | – | – | – |
| O=C(O)CCN1c2ccccc2Sc2cccnc21 [Enhancer 4-aza-PTP, 10-(pyrido[3,2-b][1,4]benzothiazyl)propionic acid] | 64% | 43% | 18% | 10% | 76% | 1.01 | 0.34 | 0.30 | 0.48 | 0.26 | 78% | 1.09 | 33% | 0.50 | 60% | 0.98 | 83% | 1.26 | 60% | 0.91 | enhancing capabilities with peroxidase ([1]; summary of Examples 3-5, especially at lower concentrations (Example 5)): excellent enhancing capabilities; enhancing capabilities with laccase ([5]; summary of Examples 6-7): excellent enhancing capabilities |
| O=C(O)CCN1c2ccccc2Sc2ccccc21 [PTP, reference compound] | 35% | 29% | 6% | 2% | 80% | 1.03 | 0.14 | 0.37 | 0.32 | 0.24 | 65% | 0.92 | 48% | 0.78 | 20% | 0.33 | 40% | 0.66 | 50% | 0.82 | – |

— patent US6169065A, “Method for the activity of an enzyme” (Lever Brothers Company division of Conopco Company, priority 1997, dated 2001)
